Results taken from article PMC2725296, “Interrogating and Predicting Tolerated Sequence Diversity in Protein Folds: Application to E. elaterium Trypsin Inhibitor-II Cystine-Knot Miniprotein” (PLoS Computational Biology, 2009).
Each block holds one substance with its values, some of them ahead of it. No end group written: not given here.

Columns and labels:
trypsin [1] = experiment: equilibrium binding of fluorescently-labeled trypsin to yeast-displayed EETIwt (flow cytometry); settings: data not shown
Source text: We measured cell surface expression levels of the EETIwt fusion protein by flow cytometry, after staining yeast cells with a primary antibody against a C-terminal cMyc epitope tag followed by the addition of a fluorescently-labeled secondary antibody. […] (Figure 2).
Figure 2 Yeast surface display of EETI knottins and isolation of properly folded EETI loop-substituted clones. […] Density plots depict protein expression (x-axis) versus trypsin binding (y-axis) for enriched pools of loop-substituted clones after four rounds of sorting. […] (C) The progression of enrichment for properly folded EETI loop-substituted variants was monitored by flow cytometry and quantified by trypsin binding levels (at 25 nM), normalized for differences in protein expression levels. Unsorted libraries (white), libraries after two rounds of sorting (light grey), and libraries after four rounds of sorting (dark grey), as compared to EETIwt (striped). Trypsin-binding experiments were performed in triplicate and error bars denote standard deviations.
YPD media contained 20 g/L dextrose, 20 g/L peptone, and 10 g/L yeast extract. Selective SD-CAA media contained 20 g/L dextrose, 6.7 g/L yeast nitrogen base without amino acids, 5.4 g/L Na2HPO4, 8.6 g/L NaH2PO4⋅H2O, and 5 g/L Bacto casamino acids. […]

trypsin [2] = experiment: trypsin binding of individual yeast-displayed EETI loop 3 clones by dual-color flow cytometry; settings: triplicate; for trypsin binding level as percentage of EETIwt / trypsin binding level relative to EETIwt (fold higher): adjusted for expression (cMyc), normalized to EETIwt; for statistical significance of trypsin binding level over the highest-binding randomly-generated clone: single-factor ANOVA (p<0.02), 25 nM trypsin; for trypsin binding level relative to EETIwt (fold higher): single-factor ANOVA p<0.05 vs EETIwt
Source text: In addition, we also constructed twenty-five clones where EETI loop 3 was replaced by a randomly-generated nine-amino acid sequence (Table S2). Plasmids containing DNA encoding for predicted and randomly-generated clones were transformed into yeast and induced for expression on the yeast cell surface as described above. Next, we analyzed the predicted and randomly-generated EETI loop 3 clones by dual-color flow cytometry for yeast cell surface expression and binding to fluorescent trypsin, indicating retention of the knottin fold (Figure 8). […] Overall, the least-similar predicted clones also bound trypsin, but not as well as the motif-filtered clones, as expected. The small differences in trypsin binding levels of six of the least-similar predicted clones as compared to EETIwt were deemed statistically insignificant, based on single-factor ANOVA (p<0.05). […] Even the best randomly-generated clone only bound trypsin at 16% of the wild-type EETI trypsin binding level. The successful prediction of nine-amino acid sequences that can be substituted into EETI loop 3 without disrupting the knottin fold highlights the potential of this combinatorial approach for rational protein engineering applications.
Figure 8 Trypsin-binding levels of EETI loop 3 predicted and randomly-generated clones. […] Predicted clones are preceded with a ‘p’ while randomly-generated clones are preceded with an ‘r.’ Protein expression levels were quantified by immunofluorescence staining of the cMyc epitope tag. Retention of the knottin fold was determined by binding of fluorescently-labeled trypsin (25 nM). Trypsin binding levels were adjusted to account for differences in protein expression levels and then normalized to the trypsin-binding level of EETIwt. Trypsin-binding experiments were performed in triplicate and error bars denote standard deviations.
YPD media contained 20 g/L dextrose, 20 g/L peptone, and 10 g/L yeast extract. Selective SD-CAA media contained 20 g/L dextrose, 6.7 g/L yeast nitrogen base without amino acids, 5.4 g/L Na2HPO4, 8.6 g/L NaH2PO4⋅H2O, and 5 g/L Bacto casamino acids. Selective SD-CAA plates were of the same composition as the liquid media except with the addition of 182 g/L sorbitol and 15 g/L agar. SG-CAA media was identical to the SD-CAA media except dextrose was replaced with galactose. PBSA was composed of phosphate buffered saline containing 1 g/L bovine serum albumin. Lyophilized trypsin was purchased from Sigma Aldrich and fluorescently labeled with Alexa Fluor 488 tetrafluorophenyl ester (Invitrogen). Mouse anti-cMyc antibody was purchased from Covance and goat anti-mouse antibody conjugated to R-phycoerythrin was purchased from Sigma Aldrich.
Four rounds of FACS were performed on each EETI loop-substituted library to obtain an enriched pool of trypsin-binding clones. Libraries of yeast clones induced for protein expression were suspended in PBSA with mouse anti-cMyc monoclonal antibody (1∶50 dilution) and incubated for 1 h at room temperature. Yeast were pelleted by centrifugation at 4,000 rpm for 5 min, the supernatant was aspirated, and cells were washed with ice-cold PBSA. Washed yeast libraries were resuspended in PBSA with goat anti-mouse R-phycoerythrin secondary antibody (1∶25 dilution) and Alexa 488-labeled trypsin and incubated on ice in the dark for 30 min. […] Collected library clones were propagated in SD-CAA media with penicillin-streptomycin (400 µg/mL), induced for protein expression in SG-CAA media and subjected to three additional rounds of sorting. For the first round of sorting, approximately 2×10^7 yeast were sorted from each library, and at least 10 times the number of collected yeast were sorted in each subsequent round to decrease the probability of losing unique clones. Sort stringency was increased by gradually decreasing the concentration of Alexa488-labeled trypsin from 200 nM in the first round to 25 nM in the fourth round. […]

[3] = 25 nM fluorescently-labeled trypsin

Substance: Ecballium elaterium trypsin inhibitor II [EETIwt]
Kd (trypsin [1]; Alexa Fluor 488-labeled trypsin, read-out: approximate equilibrium binding constant): ~25 nM | trypsin binding specificity, in words (trypsin [1]; fluorescently-labeled trypsin): bound specifically

trypsin binding level as percentage of EETIwt (trypsin [2]; [3]): approximately 30%
Substance: NNTNTGRGY (disulfide (positions not given here)) [p20, least-similar predicted EETI loop 3 clone, …]
statistical significance of trypsin binding level over the highest-binding randomly-generated clone (trypsin [2]): statistically significant over the highest-binding randomly-generated clone

trypsin binding level as percentage of EETIwt (trypsin [2]; [3]): approximately 70%
Substance: NRNRKTPGY (disulfide (positions not given here)) [p3, motif-filtered predicted EETI loop 3 clone, …]

trypsin binding level relative to EETIwt (fold higher) (trypsin [2]; [3]): roughly 1.5 -fold
Substance: NRNRRRTGY (disulfide (positions not given here)) [p1, motif-filtered predicted EETI loop 3 clone, …]

trypsin binding level as percentage of EETIwt (trypsin [2]; [3]): approximately 30%
Substance: NTTNNSPGY (disulfide (positions not given here)) [p25, least-similar predicted EETI loop 3 clone, …]
statistical significance of trypsin binding level over the highest-binding randomly-generated clone (trypsin [2]): statistically significant over the highest-binding randomly-generated clone

trypsin binding level relative to EETIwt (fold higher) (trypsin [2]; [3]): roughly 1.5 -fold
Substance: RRNRKTLGY (disulfide) [p9, motif-filtered predicted EETI loop 3 clone, …]

trypsin binding level as percentage of EETIwt (trypsin [2]; [3]): < 5% | trypsin binding, in words (trypsin [2]; 25 nM fluorescently-labeled trypsin, yeast surface display): does not bind trypsin
Substance: potato carboxypeptidase inhibitor: a knottin that does not bind trypsin; negative control (QQHADPICNKPCKTHDDCSGAWFCQACWNSARTCGPYVG; ends and bridges not checked; cysteine pairing not given here; UniProt P01075 1-39, looked up) [reference compound]
